In patent US20070269384A1, “Use of perfluoroalkyl-containing metal complexes as contrast media for diagnosis of Alzheimer's disease” (priority 2006, published 2007):

Legend:
[1] = Hydrodynamic micelle diameter 2 Rh by photon-correlation spectroscopy; type: physicochemical
Description: The amphiphilic compounds according to the invention are combined in solution and are present as aggregates. The size (2 Rh) of such aggregates (e.g., micelles, rods, oblates, etc.) can be determined with the aid of photon-correlation spectroscopy (PCS).
As a second criterion for preferably usable metal complexes, therefore, the hydrodynamic micelle diameter 2 Rh, which must be >1 nm, is used. Those perfluoroalkyl-containing metal complexes, whose 2 Rh≧3 nm, quite especially preferably >4 nm, are especially suitable according to the invention.
(§1) Both the determination of CMC and the photon correlation spectroscopy are described in H.-D. Dorfler, “Grenzflächen- and Kolloidchemie [Interface and Colloid Chemistry],” Weinheim, New York, Basel, Cambridge, Tokyo, VSH 1994.

[2] = Proton relaxivity R1 in bovine plasma (Minispec P 20); type: physicochemical; details: in plasma at 40° C., magnetic field strength 0.47 Tesla
Protocol: As a third criterion for especially suitable MR contrast media, the proton relaxivity (relaxivity) in plasma (R1) at 40° C. and a field strength of 0.47 Tesla is used. The relaxivity, which is indicated in [l/mmol*s], is the quantitative measurement for the shortening of the relaxation time T1 of the protons. For the purpose according to the invention, the relaxivity must be as high as possible and must be >10 l/mmol*s, preferably >13 l/mmol*s, especially preferably >15 l/mmol*s.
The relaxivity R1 [l/mmol*s] of the MR contrast media according to the invention was determined with the Minispec P 20 device of the Bruker Company. The measurements were made at 40° C. and a field strength of 0.47 Tesla. 8 measuring points were recorded in each T1 sequence (180°-T1-90°, inversion recovery). As a medium, bovine plasma of the Kraeber Company was used. The contrast medium concentrations [mmol/l] in the preparations were between 0.30 and 1.16.

[3] = Critical micelle formation concentration (CMC) by tensiometry; type: physicochemical
Protocol: In aqueous systems, these amphiphilic molecules show the properties that are characteristic of standard surfactants (such as, e.g., sodium dodecyl sulfate, SDS). Thus, they reduce the surface tension of the water. By tensiometry, the so-called CMC (critical micelle formation concentration in mol/l) can be determined. To this end, the surface tension is determined based on the concentration of the substance to be measured. The CMC can be calculated from the course of the surface tension (c) function that is obtained. The critical micelle formation concentration of the compounds according to the invention should be <10^−3 mol/l, preferably <10^−4 mol/l.
as §1

[4] = tested on: amyloid plaques; experiment: MRT visualization of Alzheimer lesions after intravenous administration in APP-23 mice; type: in vivo; details: 0.5 mmol of Gd/kg i.v., up to 60 minutes after administration, 7T, localization confirmed by Puchtler's Congo red stain
Protocol: MRT Visualization of Alzheimer Lesions After Intravenous Administration of Contrast Medium in APP-23 Mice
The images of FIG. 1 show MR images of the brain before as well as up to 60 minutes after intravenous administration of 0.5 mmol of Gd/kg of body weight of metal complex 13 (MK13) in APP-23 mice (mice with genetically-induced Alzheimer's disease). […] The localization of the amyloid-containing structures was confirmed by means of Puchtler's Congo red stain. With this test, the suitability of the compounds according to the invention as in-vivo markers for amyloid plaques in the brains of mice with Alzheimer's disease could be shown.

2 Rh (Hydrodynamic Micelle Diameter) [1] [nm]	R1 (Relaxivity) [2] [L/mmol/s]	CMC (Critical Micelle Formation Concentration) [3] [mol/L]	Compound	MR signal in the amyloid plaques of the diseased brains (T1-weighted spin echo images) [4]
2.2	19.5	0.00089	gadolinium complex of 1,4,7-tris{1,4,7-tris(N-(carboxylatomethyl)-10-[N-1-methyl-3,6-diaza-2,5,8-trioxooctane-1,8-diyl)]-1,4,7,10-tetraazacyclododecane, Gd complex}-10-[N-2H, 2H, 4H, 4H, 5H, 5H-3-oxa-perfluoro-tridecanoyl]-1,4,7,10-tetraazacyclododecane [MK 12]	
4.4	15.9	2.5e-06	CC(C(=O)NCC(=O)NCCCC[C@H](NC(=O)CO[C@H]1O[C@H](CO)[C@@H](O)[C@H](O)[C@@H]1O)C(=O)N1CCN(S(=O)(=O)C(F)(F)C(F)(F)C(F)(F)C(F)(F)C(F)(F)C(F)(F)C(F)(F)C(F)(F)F)CC1)N1CCN(CC(=O)[O-])CCN(CC(=O)[O-])CCN(CC(=O)[O-])CC1.[Gd+3] (stereo partly drawn) [MK 13, gadolinium complex of 6-N-[1,4,7-tris(carboxylatomethyl)-1,4,7,10-tetraazacyclododecane-10-N-(pentanoyl-3-aza-4-oxo-5-methyl-5-yl)]-2-N-[1-O-α-D-carbonylmethyl-manno-pyranose]-L-lysine-[1-(4-perfluorooctylsulfonyl)-piperazine]-amide]	strong signal increase
